Source: PubChem BioAssay (NCI)
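How tested: cells in 96-well plates exposed to compound for 48 hours at five concentrations. GI50 = concentration required for 50% inhibition of growth. TGI is the concentration that stops growth completely.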

Legend:
Test in all cases: inhibition of tumour cell growth, NCI panel, 48 h
K-562 leukemia = test system: K-562 leukemia
CAKI-1 renal = test system: CAKI-1 renal
SW-620 colon = test system: SW-620 colon
SK-MEL-5 melanoma = test system: SK-MEL-5 melanoma
NCI-H522 lung = test system: NCI-H522 lung
UACC-257 melanoma = test system: UACC-257 melanoma
ACHN renal = test system: ACHN renal
MALME-3M melanoma = test system: MALME-3M melanoma
MDA-MB-231 breast = test system: MDA-MB-231 breast
HS 578T breast = test system: HS 578T breast

Row | Structure (SMILES) | TGI (K-562 leukemia) [µM] | TGI (CAKI-1 renal) [µM] | TGI (SW-620 colon) [µM] | TGI (SK-MEL-5 melanoma) [µM] | TGI (NCI-H522 lung) [µM] | TGI (UACC-257 melanoma) [µM] | TGI (ACHN renal) [µM] | TGI (MALME-3M melanoma) [µM] | TGI (MDA-MB-231 breast) [µM] | TGI (HS 578T breast) [µM] | GI50 (K-562 leukemia) [µM] | GI50 (CAKI-1 renal) [µM] | GI50 (SW-620 colon) [µM] | GI50 (SK-MEL-5 melanoma) [µM] | GI50 (NCI-H522 lung) [µM] | GI50 (MDA-MB-231 breast) [µM] | GI50 (UACC-257 melanoma) [µM] | GI50 (ACHN renal) [µM] | GI50 (HS 578T breast) [µM] | GI50 (MALME-3M melanoma) [µM]
1 | CCOC(=O)C(Br)=C1OC(=O)c2ccccc2-c2ccccc21 (mixture of isomers) | 22.7 | 32.7 | 35.1 | 35.8 | 32 | 48 | 29 | 37.6 |  |  |  |  |  |  |  |  |  |  |  | 
2 | FC(F)(F)c1ccc2nc(NCc3ccccc3)c(-c3ccccc3)nc2c1 |  |  | > 100 |  |  | > 100 | > 100 | > 100 |  |  |  |  |  |  |  |  |  |  |  | 
3 | C[N+](C)(C)CC(=O)N/N=C(/Cc1cc(=O)oc2cc(O)ccc12)C(=O)Nc1ccc(Cl)cc1 | > 100 | > 100 | > 100 | > 100 | > 100 | > 100 | > 100 | > 100 |  |  |  |  |  |  |  |  |  |  |  | 
4 | COc1c(C)c(OCC=C(C)C)cc(CO)c1CO | > 100 | > 100 | > 100 | 59.1 | > 100 | > 100 | > 100 |  | > 100 | > 100 |  |  |  |  |  |  |  |  |  | 
5 | COc1ccc(-c2c(C#N)c(N3CCOCC3)nc3[nH]c(=S)[nH]c(=S)c23)cc1OC | > 100 | 87.3 | > 100 | > 100 | > 100 | > 100 | > 100 |  | 77.1 | > 100 | 36.7 | 30.7 | 49.1 | 27.5 | > 100 | 13.9 | > 100 | 35.8 | 47.3 | 
6 | CCCCCCCCCCCC[N+]12CC[N+](CCN)(CC1)CC2 | > 100 | > 100 | > 100 | > 100 | > 100 | > 100 | > 100 | > 100 |  |  |  |  |  |  |  |  |  |  |  | 
7 | COC(=O)c1c(C)cc(OC)c(C/C=C(\C)CCCc2coc(C=C(C)C)c2)c1OC | > 100 | > 100 | > 100 | > 100 | > 100 | > 100 | > 100 |  | > 100 | 79.7 |  |  |  |  |  |  |  |  |  | 
8 | CC12c3ccccc3C(OC=O)(c3ccccc31)C1(C)c3ccccc3C2(OC=O)c2ccccc21 | > 100 | > 100 | > 100 | > 100 | > 100 | > 100 | > 100 | > 100 |  |  |  |  |  |  |  |  |  |  |  | 
9 | CSC[C@H](NC(=O)COc1cccc2cnccc12)C(=O)NC(Cc1ccccc1)C(O)C(=O)N1CSC[C@H]1C(=O)NC(C)(C)C (stereo not given in full) | > 100 |  | > 100 |  | > 100 | > 100 | 84.9 | > 100 | > 100 | > 100 |  |  |  |  |  |  |  |  |  | 
10 | CC(=O)N/C(=C\c1ccccc1/C=C(\NC(C)=O)c1nc2cc(C)c(C)cc2[nH]1)c1nc2cc(C)c(C)cc2[nH]1 | 95.5 | 78.1 | 64.7 | 43 | 24 |  | 28.4 | 54.2 |  |  |  |  |  |  |  |  |  |  |  | 
11 | O=C1C=C(c2c(O)ccc3ccccc23)c2cc(O)ccc2C1=O | > 100 | 40.1 | 34.3 | 28.6 |  | 33.1 | 31.5 | 34.2 |  |  |  |  |  |  |  |  |  |  |  | 
12 | CC1=C(C(=O)Nc2ccccc2)C(c2ccc(Cl)c(Cl)c2)C(C(=O)Nc2ccccc2)=C(C)N1 |  |  | 34.7 | 28.7 | 25.8 | 26.5 | 24.9 | 26.7 |  |  |  |  |  |  |  |  |  |  |  | 
13 | CCCN(CCC)c1c([N+](=O)[O-])cc(C(=O)N(CC)CC)cc1[N+](=O)[O-] | > 100 | > 100 | 84.1 | 26.8 | 28.6 | 43.3 | > 100 | 40.5 |  |  |  |  |  |  |  |  |  |  |  | 
14 | NCCCn1c2c(c3ccc([N+](=O)[O-])cc3c1=O)C(=O)c1cc(I)ccc1-2 | 0.196 | 1.98 | 1.76 | 1.45 |  | 2.55 | 1.29 | 1.86 | 3.48 | 4.33 | < 0.0147 | 0.0758 | < 0.01 | 0.172 |  | 1.8 | 1.1 | < 0.0179 | 1.98 | 0.228
15 | CCOc1ccc(OCC(=O)O)c2c1CCCC2=O |  |  | > 100 | > 100 | > 100 | > 100 | > 100 | > 100 |  |  |  |  |  |  |  |  |  |  |  | 
16 | O=Cc1cc2c(cc1-c1cc3c(cc1C=O)OCO3)OCO2 | > 100 | > 100 | > 100 | > 100 | > 100 | > 100 | > 100 | > 100 |  |  |  |  |  |  |  |  |  |  |  | 
17 | O=c1[nH]c(=O)n(C2CC(O)C(CO)O2)cc1OS(=O)(=O)C(F)(F)F (stereo not given) | > 100 | > 100 | > 100 | > 100 | > 100 |  | > 100 | > 100 |  |  |  |  |  |  |  |  |  |  |  | 
18 | COc1cc(OC)c(OC)cc1/C=N/NC(=O)N/N=C/c1cc(OC)c(OC)cc1OC | > 100 |  | > 100 | > 100 | 86.5 | > 100 | > 100 | > 100 |  |  |  |  |  |  |  |  |  |  |  | 
19 | c1ccc2c(c1)CCc1c(-c3ccncc3)n[nH]c1-2 | > 100 | 73.4 | > 100 | 32.1 |  | 57.7 | > 100 | > 100 |  |  |  |  |  |  |  |  |  |  |  | 
20 | Cc1cc2c(cc1C)[n+](=O)cc(C(=O)C/C(=N/NC(=S)NN)C(=O)Nc1cccc(C(F)(F)F)c1)n2[O-] | > 100 | > 100 | > 100 | > 100 | > 100 | > 100 | > 100 | > 100 |  |  |  |  |  |  |  |  |  |  |  | 
21 | COCOCCC#CCO | > 100 |  | > 100 | > 100 | > 100 | > 100 | > 100 | > 100 |  |  |  |  |  |  |  |  |  |  |  | 
22 | Cc1nc2c(N)ncnc2o1 | > 100 | > 100 | > 100 | > 100 | > 100 | > 100 | > 100 | > 100 |  |  |  |  |  |  |  |  |  |  |  | 
23 | CNCCCNc1ccnc2cc(Cl)ccc12 | > 100 | 48.6 | 58.8 | 31.6 |  |  | 61.3 | 40.5 | 56.5 | 78 | 15.2 | 17.3 | 13.2 | 16.4 |  | 12.7 |  | 19 | 20.8 | 19.7
